{"source": "patent US20150258107A1", "about": "“METHODS AND COMPOSITIONS FOR TREATING DEPRESSION” (DemeRx, Inc., priority 2014, published 2015)", "key": {"[1]": {"assay": "Single dose (acute oral) toxicity/TK study in dogs", "format": "in vivo, dog", "conditions": "dog, in vivo; single oral dose"}, "dogs": {"system": "dogs", "assay": "Single dose (acute oral) toxicity/TK study in dogs", "format": "in vivo, dog"}, "[2]": {"assay": "Single dose toxicity in cynomolgus monkeys", "format": "in vivo, cynomolgus monkey", "conditions": "cynomolgus monkey, in vivo; oral gavage; read-out: single dose maximum tolerated dose (MTD)", "protocol": "(§1) The objective of the study was to determine the toxicity and toxicokinetic profile of noribogaine following oral (gavage) administration to the cynomolgus monkey. Each dose was followed by a 7 day washout period. Dosing was staggered by 45 minutes. On study day 15, one animal was administered 80 mg/kg and the other animal was administered 160 mg/kg. The test article was administered as follows in Table 1:\n(§2) Parameters monitored on the study included: mortality, clinical signs and body weights. Blood samples were collected for TK evaluation. […] The single dose maximum tolerated dose (MTD) was determined to be greater than 160 mg/kg based on the parameters monitored during the study."}, "cynomolgus monkey": {"system": "cynomolgus monkey", "assay": "Single dose toxicity in cynomolgus monkeys", "format": "in vivo", "conditions": "oral gavage, doses up to and including 160 mg/kg", "protocol": "as §1, §2"}, "[3]": {"assay": "Human pharmacokinetic study, single oral tablet, fasting healthy volunteers (serum levels)", "format": "in vivo", "conditions": "fasting; for Cmax: human, serum, oral", "protocol": "In double blind studies, fasting healthy volunteers (6 per cohort) were treated once orally with a tablet of noribogaine HCl. In escalating cohorts, the volunteers received 3 mg, 10 mg, 30 mg or 60 mg noribogaine."}, "[4]": {"system": "healthy, drug-free male volunteers", "assay": "Pupillometry (pupillary miosis) in healthy volunteers", "format": "in vivo, human", "conditions": "3, 10, 30, 60 mg single oral dose", "protocol": "Pulse oximetry and capnography data were collected continuously using a GE Carescape B650 monitoring system from 2 hours prior to dosing and until six hours after dosing, and thereafter at 12, 24, 48 and 72 hours post-dosing. […] Pupillary miosis was assessed by pupillometry.\nSummary statistics (means, standard deviations, and coefficients of variation) were determined for each dose group for safety laboratory test data, ECG and pharmacokinetic parameters, and pharmacodynamic variables. Categorical variables were analysed using counts and percentages. Dose-proportionality of AUC and Cmax was assessed using linear regression. The effect of dose on pharmacodynamic parameter values over time was assessed using two-factor analysis of variance (ANOVA). Pairwise comparisons (with Tukey-Kramer adjustment) between each dose group to the placebo were conducted at each time point using the least squares estimates obtained from the ANOVA, using SAS Proc Mixed (SAS ver 6.0)."}, "[5]": {"system": "healthy, drug-free male volunteers", "assay": "Cold pressor test in healthy volunteers", "format": "in vivo, human", "conditions": "3, 10, 30, 60 mg single oral dose; hand immersion duration and VAS pain scores", "protocol": "Analgesic effect was assessed based on duration of hand immersion in ice water and on visual analog scale (VAS) pain scores upon hand removal from the water bath.\nSafety and tolerability of noribogaine were tested in the group of volunteers from Example 9. […] Safety evaluations included clinical monitoring, recording of adverse events (AEs), safety laboratory tests, vital signs, ECG telemetry from −2 h to 6 h after dosing, and 12-lead electrocardiograms (ECGs) up to 216 hours post-dosing."}, "[6]": {"assay": "Pharmacokinetics in opioid-dependent patients (Phase IB study)", "format": "in vivo, human", "conditions": "60, 120, 180 mg", "protocol": "(§3) Three cohorts of nine (9) subjects (6 administered noribogaine and 3 administered placebo in each cohort) were evaluated for tolerability, pharmacokinetics, and efficacy. Cohort 1 received a single dose of 60 mg noribogaine or placebo. Cohort 2 received a single dose of 120 mg noribogaine or placebo. Cohort 3 received a single dose of 180 mg noribogaine or placebo. […] Headaches were frequent in the placebo and 60 mg noribogaine treatment groups, but were attenuated in the 120 mg and 180 mg dose groups."}, "[7]": {"system": "opioid-dependent participants", "assay": "Time to resumption of opioid substitution treatment (OST) and opiate withdrawal scales", "format": "in vivo, human", "protocol": "as §3\nPatients were evaluated based on the Clinical Opiate Withdrawal Scale (COWS), Subjective Opiate Withdrawal Scale (SOWS), and Objective Opiate Withdrawal Scale (OOWS) scoring systems over the period of time between administration of noribogaine (or placebo) until resumption of OST. These scales are outlined in Guidelines for the Psychosocially Assisted Pharmacological Treatment of Opioid Dependence, World Health Organization, Geneva (2009), Annex 10, which is incorporated herein by reference in its entirety. The scales measure the intensity of withdrawal symptoms, based on clinical, subjective, and objective indicia."}, "[8]": {"system": "opioid-dependent participants", "assay": "QT interval in opioid-dependent participants", "format": "in vivo, human", "conditions": "60, 120, 180 mg, first 24 hours post administration", "protocol": "Patients' QT intervals were evaluated at regular time points throughout the study."}}}
{"compound": "CC[C@H]1CC2C[C@H]3c4[nH]c5ccc(O)cc5c4CCN(C2)C13", "note": "[noribogaine]", "values": [{"measurement": "NOAEL", "setting": "[1]", "result": 5, "unit": "mg/kg"}, {"measurement": "Findings at the NOAEL dose", "setting": "dogs; 5 mg/kg", "result": "only transient reduction in food consumption in one dog"}, {"measurement": "Clinical signs", "setting": "dogs; 10 mg/kg", "result": "Convulsions and other CNS-related clinical signs"}, {"measurement": "Onset of clinical signs after dosing", "setting": "dogs; 10 mg/kg", "result": 20, "unit": "min"}, {"measurement": "Mortality", "setting": "dogs; oral doses of 5 (n=2) or 10 (n=2) mg/kg", "result": "no mortality occurred"}, {"measurement": "MTD", "setting": "[2]", "result": "> 160", "unit": "mg/kg"}, {"measurement": "Mortality or treatment related clinical signs", "setting": "cynomolgus monkey", "result": "No mortality or treatment related clinical signs were noted"}, {"measurement": "Cmax", "setting": "[3]; single dose of 3 mg", "result": 5.2, "unit": "ng/mL"}, {"measurement": "Cmax", "setting": "[3]; single dose of 10 mg", "result": 14.5, "unit": "ng/mL"}, {"measurement": "Cmax", "setting": "[3]; single dose of 30 mg", "result": 55.9, "unit": "ng/mL"}, {"measurement": "Cmax", "setting": "[3]; single dose of 60 mg", "result": 116, "unit": "ng/mL"}, {"measurement": "mean AUC/24 hr", "setting": "[3]; single dose of 3 mg", "result": 3.1, "unit": "ng/mL"}, {"measurement": "mean AUC/24 hr", "setting": "[3]; single dose of 10 mg", "result": 10.6, "unit": "ng/mL"}, {"measurement": "mean AUC/24", "setting": "[3]; single dose of 30 mg", "result": 29.2, "unit": "ng/mL"}, {"measurement": "mean AUC/24", "setting": "[3]; single dose of 60 mg", "result": 61, "unit": "ng/mL"}, {"measurement": "Pupillary constriction", "setting": "[4]", "result": "no evidence of pupillary constriction"}, {"measurement": "Analgesic effect in the cold pressor test", "setting": "[5]", "result": "no analgesic effect"}, {"measurement": "Dose dependence of maximum serum concentration (Cmax)", "setting": "[6]", "result": "increased in a dose-dependent manner"}, {"measurement": "Withdrawal symptoms (COWS, OOWS, SOWS, first six hours)", "setting": "[7]; 120 mg", "result": "generally experienced fewer withdrawal symptoms than the other patients"}, {"measurement": "Average time to resumption of opioids", "setting": "[7]; single 120 mg dose", "result": "greater than 20 hours"}, {"measurement": "QT interval prolongation (ΔQTc1)", "setting": "[8]", "result": "dose-dependent increase in QT interval prolongation"}]}
